# Biological target: α-glucosidase
# Assay: p-nitrophenyl-α-D-glucopyranoside hydrolysis assay, absorbance […] nm
# Type: biochemical
row,Structure (SMILES),Glucosidase IC50
1,"O=C(/C=C/c1ccc(Cl)cc1)c1ccc(Br)cc1 [JA3, (E)-1-(4-bromophenyl)-3-(4-chlorophenyl) prop-2-ene-1one]",63.04 ± 1.17 µg/mL
2,"O=C(/C=C/c1cccc(Cl)c1)c1ccc(Br)cc1 [JA2, (E)-1-(4-bromophenyl)-3-(3-chlorophenyl) prop-2-ene-1one]",97.24 ± 1.48 µg/mL
3,"O=C(/C=C/c1ccccc1Cl)c1ccc(Br)cc1 [JA1, (E)-1-(4-bromophenyl)-3-(2-chlorophenyl) prop-2-ene-1one]",85.11 ± 1.29 µg/mL
